According to ChEMBL document CHEMBL5154901, “Development of Predictive Classification Models for Whole Cell Antimycobacterial Activity of Benzothiazinones” (J Med Chem, 2022):
Values after ≈ are worked out from the molar mass of the structure shown.

Test system: not listed separately
Assay: Cytotoxicity against human HeLa cells assessed as reduction in cell viability incubated for 72 hrs by methylene blue staining based colorimetric assay
Format: toxicity
Details: not given

Point of comparison: O=c1nc(N2CC[C@@](O)(c3ccc(F)cc3)[C@H](O)C2)sc2c([N+](=O)[O-])cc(C(F)(F)F)cc12, CC50 at 72 h 66.1 µM. Against it:
- O=c1nc(N2CCC(c3ccc(CO)cc3)CC2)sc2c([N+](=O)[O-])cc(C(F)(F)F)cc12 — 3.4-fold lower, 19.6 µM
- O=c1nc(N2CC[C@](O)(COc3ccc(F)cc3)[C@@H](O)C2)sc2c([N+](=O)[O-])cc(C(F)(F)F)cc12 — 1.9-fold lower, 34.3 µM
- O=c1nc(N2CCC(Oc3ccc(OC(F)(F)F)cc3)CC2)sc2c([N+](=O)[O-])cc(C(F)(F)F)cc12 — higher, > 93 µM
- CN(CCCCCCO)c1nc(=O)c2cc(C(F)(F)F)cc([N+](=O)[O-])c2s1 — 1.5-fold higher, 101 µM
- O=c1nc(N2CC[C@@H](c3ccccc3)[C@H](O)C2)sc2c([N+](=O)[O-])cc(C(F)(F)F)cc12 — higher, > 93 µM
- CN(CCO)c1nc(=O)c2cc(C(F)(F)F)cc([N+](=O)[O-])c2s1 — within 1.5-fold, 80.2 µM
- COc1cc2c(cc1OC)[C@@H](C[C@@H](O)c1ccccc1)N(c1nc(=O)c3cc(C(F)(F)F)cc([N+](=O)[O-])c3s1)CC2 — higher, > 85 µM
- O=c1nc(N2CC[C@@](O)(COc3ccc(F)cc3)[C@H](O)C2)sc2c([N+](=O)[O-])cc(C(F)(F)F)cc12 — 3.6-fold lower, 18.4 µM
- O=c1nc(N2CCC(CCO)CC2)sc2c([N+](=O)[O-])cc(C(F)(F)F)cc12 — within 1.5-fold, 91.5 µM
- CC(=O)c1ccc(N2CCN(c3nc(=O)c4cc(C(F)(F)F)cc([N+](=O)[O-])c4s3)CC2)cc1 — higher, > 105 µM
- O=c1nc(N2Cc3ccccc3[C@H](CO)C2)sc2c([N+](=O)[O-])cc(C(F)(F)F)cc12 — within 1.5-fold, 86.4 µM
- CN1CCN(C(=O)C(F)(F)C(F)(F)C(=O)N2CCN(c3nc(=O)c4cc(C(F)(F)F)cc([N+](=O)[O-])c4s3)CC2)CC1 — higher, > 81.4 µM
- CN1CCC(CCCC2CCN(c3nc(=O)c4cc(C(F)(F)F)cc([N+](=O)[O-])c4s3)CC2)CC1 — 3.3-fold lower, 20.1 µM
- COc1cc(OC)cc(N2CCN(c3nc(=O)c4cc(C(F)(F)F)cc([N+](=O)[O-])c4s3)CC2)c1 — higher, > 101 µM
- O=c1nc(N2CCN(CC(F)(F)c3ccccc3)CC2)sc2c([N+](=O)[O-])cc(C(F)(F)F)cc12 — higher, > 100 µM
- O=c1nc(N2CCN(CC(F)(F)c3ccc(F)cc3)CC2)sc2c([N+](=O)[O-])cc(C(F)(F)F)cc12 — within 1.5-fold, 87.2 µM
- O=C(CN1CCN(c2nc(=O)c3cc(C(F)(F)F)cc([N+](=O)[O-])c3s2)CC1)NCc1ccccc1 — within 1.5-fold, 57.1 µM
- O=c1nc(N2CC[C@](O)(c3ccccc3)[C@@H](O)C2)sc2c([N+](=O)[O-])cc(C(F)(F)F)cc12 — within 1.5-fold, 73 µM
- O=C(CN1CCN(c2nc(=O)c3cc(C(F)(F)F)cc([N+](=O)[O-])c3s2)CC1)Nc1ccccc1 — higher, > 101 µM
- O=c1nc(N2CC[C@](O)(c3ccc(F)cc3)[C@@H](O)C2)sc2c([N+](=O)[O-])cc(C(F)(F)F)cc12 — within 1.5-fold, 73.3 µM
- O=c1nc(N2CCN(CC(F)(F)c3ccc(OC(F)(F)F)cc3)CC2)sc2c([N+](=O)[O-])cc(C(F)(F)F)cc12 — higher, > 86 µM
- O=c1nc(N2CCN(Cc3ccncc3)CC2)sc2c([N+](=O)[O-])cc(C(F)(F)F)cc12 — higher, > 111 µM
- O=c1nc(N2CC[C@@H](c3ccc(F)cc3)[C@H](CO)C2)sc2c([N+](=O)[O-])cc(C(F)(F)F)cc12 — 1.8-fold lower, 35.8 µM
- O=c1nc(N2CC[C@@H](c3ccc(F)cc3)[C@H](O)C2)sc2c([N+](=O)[O-])cc(C(F)(F)F)cc12 — within 1.5-fold, 68.4 µM
- N#Cc1cccc(N2CCN(c3nc(=O)c4cc(C(F)(F)F)cc([N+](=O)[O-])c4s3)CC2)c1 — higher, > 108 µM
- O=C(CN1CCN(c2nc(=O)c3cc(C(F)(F)F)cc([N+](=O)[O-])c3s2)CC1)Nc1ccccn1 — within 1.5-fold, 44.5 µM
- O=c1nc(N2CCN(CCc3ccccc3)CC2)sc2c([N+](=O)[O-])cc(C(F)(F)F)cc12 — higher, > 108 µM
- O=c1nc(N2CC[C@@](O)(c3ccccc3)[C@H](O)C2)sc2c([N+](=O)[O-])cc(C(F)(F)F)cc12 — within 1.5-fold, 68.5 µM

Test system: Mycolicibacterium vaccae
Assay: Antimycobacterial activity against Mycobacterium vaccae (JMRC:STI:10670) assessed as reduction in bacterial growth incubated for 42 hrs by serial dilution method
Format: functional
Details: not given

With Cn1c(-c2ccccc2)nc2c1CN(c1nc(=O)c3cc(C(F)(F)F)cc([N+](=O)[O-])c3s1)C2 the MIC was 13 10^3nM.
In the case of O=C(O)[C@@H]1CN(c2nc(=O)c3cc(C(F)(F)F)cc([N+](=O)[O-])c3s2)Cc2ccccc21, the MIC is reported as 3.5 10^3nM.
In the case of O=c1nc(N2CCc3[nH]nc(-c4ccccc4)c3C2)sc2c([N+](=O)[O-])cc(C(F)(F)F)cc12, the MIC is reported as 6.6 10^3nM.
For O=c1nc(N2CCn3cc(-c4ccccc4)nc3C2)sc2c([N+](=O)[O-])cc(C(F)(F)F)cc12, the MIC was 53 10^3nM.
With O=c1nc(N2CCC(O)CC2)sc2c([N+](=O)[O-])cc(C(F)(F)F)cc12 the MIC was 1.1 10^3nM.
With CN1CCN(C(=O)CCC(=O)N2CCN(c3nc(=O)c4cc(C(F)(F)F)cc([N+](=O)[O-])c4s3)CC2)CC1 the MIC was 5.8 10^3nM.
In the case of O=c1nc(Nc2ccc(CO)cc2)sc2c([N+](=O)[O-])cc(C(F)(F)F)cc12, the MIC is reported as 16 10^3nM.
For CN1CCC(OC2CCN(c3nc(=O)c4cc(C(F)(F)F)cc([N+](=O)[O-])c4s3)CC2)CC1, the MIC was 6.6 10^3nM.

Same assay, conditions: Mycolicibacterium vaccae, JMRC:STI:10670, read-out: MIC

Point of comparison: O=c1nc(N2CC[C@@H](c3ccc(F)cc3)[C@H](CO)C2)sc2c([N+](=O)[O-])cc(C(F)(F)F)cc12, MIC 0.0128 µM (≈ 0.00619 µg/mL). Against it:
- O=c1nc(N2CCC(c3ccc(CO)cc3)CC2)sc2c([N+](=O)[O-])cc(C(F)(F)F)cc12 — 4.2-fold higher, 0.0537 µM (≈ 0.025 µg/mL)
- O=c1nc(N2CC[C@@](O)(c3ccc(F)cc3)[C@H](O)C2)sc2c([N+](=O)[O-])cc(C(F)(F)F)cc12 — 4-fold higher, 0.0515 µM (≈ 0.025 µg/mL)
- O=c1nc(N2CC[C@](O)(COc3ccc(F)cc3)[C@@H](O)C2)sc2c([N+](=O)[O-])cc(C(F)(F)F)cc12 — 1.9-fold higher, 0.0243 µM (≈ 0.0125 µg/mL)
- O=c1nc(N2CCC(Oc3ccc(OC(F)(F)F)cc3)CC2)sc2c([N+](=O)[O-])cc(C(F)(F)F)cc12 — 4.5-fold higher, 0.0579 µM (≈ 0.031 µg/mL)
- CN(CCCCCCO)c1nc(=O)c2cc(C(F)(F)F)cc([N+](=O)[O-])c2s1 — 2.4-fold higher, 0.0308 µM (≈ 0.0125 µg/mL)
- O=c1nc(N2CC[C@@H](c3ccccc3)[C@H](O)C2)sc2c([N+](=O)[O-])cc(C(F)(F)F)cc12 — 2.2-fold higher, 0.0277 µM (≈ 0.0125 µg/mL)
- CN(CCO)c1nc(=O)c2cc(C(F)(F)F)cc([N+](=O)[O-])c2s1 — 5.6-fold higher, 0.0716 µM (≈ 0.025 µg/mL)
- COc1cc2c(cc1OC)[C@@H](C[C@@H](O)c1ccccc1)N(c1nc(=O)c3cc(C(F)(F)F)cc([N+](=O)[O-])c3s1)CC2 — 3.3-fold higher, 0.0425 µM (≈ 0.025 µg/mL)
- O=c1nc(N2CC[C@@](O)(COc3ccc(F)cc3)[C@H](O)C2)sc2c([N+](=O)[O-])cc(C(F)(F)F)cc12 — 3.8-fold higher, 0.0485 µM (≈ 0.025 µg/mL)
- O=c1nc(N2CCC(CCO)CC2)sc2c([N+](=O)[O-])cc(C(F)(F)F)cc12 — 78-fold higher, 0.992 µM (≈ 0.4 µg/mL)
- CC(=O)c1ccc(N2CCN(c3nc(=O)c4cc(C(F)(F)F)cc([N+](=O)[O-])c4s3)CC2)cc1 — 10-fold higher, 0.13 µM (≈ 0.0622 µg/mL)
- O=c1nc(N2Cc3ccccc3[C@H](CO)C2)sc2c([N+](=O)[O-])cc(C(F)(F)F)cc12 — 2.2-fold higher, 0.0286 µM (≈ 0.0125 µg/mL)
- CN1CCN(C(=O)C(F)(F)C(F)(F)C(=O)N2CCN(c3nc(=O)c4cc(C(F)(F)F)cc([N+](=O)[O-])c4s3)CC2)CC1 — 3.2-fold higher, 0.0407 µM (≈ 0.025 µg/mL)
- CN1CCC(CCCC2CCN(c3nc(=O)c4cc(C(F)(F)F)cc([N+](=O)[O-])c4s3)CC2)CC1 — 9.7-fold higher, 0.124 µM (≈ 0.0618 µg/mL)
- COc1cc(OC)cc(N2CCN(c3nc(=O)c4cc(C(F)(F)F)cc([N+](=O)[O-])c4s3)CC2)c1 — 4.9-fold higher, 0.0624 µM (≈ 0.031 µg/mL)
- O=c1nc(N2CCN(CC(F)(F)c3ccccc3)CC2)sc2c([N+](=O)[O-])cc(C(F)(F)F)cc12 — within 1.5-fold, 0.016 µM (≈ 0.00801 µg/mL)
- O=c1nc(N2CCN(CC(F)(F)c3ccc(F)cc3)CC2)sc2c([N+](=O)[O-])cc(C(F)(F)F)cc12 — within 1.5-fold, 0.0154 µM (≈ 0.00798 µg/mL)
- O=C(CN1CCN(c2nc(=O)c3cc(C(F)(F)F)cc([N+](=O)[O-])c3s2)CC1)NCc1ccccc1 — 7.7-fold higher, 0.0985 µM (≈ 0.05 µg/mL)
- O=c1nc(N2CC[C@](O)(c3ccccc3)[C@@H](O)C2)sc2c([N+](=O)[O-])cc(C(F)(F)F)cc12 — 2.1-fold higher, 0.0267 µM (≈ 0.0125 µg/mL)
- O=C(CN1CCN(c2nc(=O)c3cc(C(F)(F)F)cc([N+](=O)[O-])c3s2)CC1)Nc1ccccc1 — 2-fold higher, 0.0253 µM (≈ 0.0125 µg/mL)
- O=c1nc(N2CC[C@](O)(c3ccc(F)cc3)[C@@H](O)C2)sc2c([N+](=O)[O-])cc(C(F)(F)F)cc12 — 4-fold higher, 0.0515 µM (≈ 0.025 µg/mL)
- O=c1nc(N2CCN(CC(F)(F)c3ccc(OC(F)(F)F)cc3)CC2)sc2c([N+](=O)[O-])cc(C(F)(F)F)cc12 — 4.7-fold lower, 0.0027 µM (≈ 0.00158 µg/mL)
- O=c1nc(N2CCN(Cc3ccncc3)CC2)sc2c([N+](=O)[O-])cc(C(F)(F)F)cc12 — 5.4-fold higher, 0.0687 µM (≈ 0.031 µg/mL)
- O=c1nc(N2CC[C@@H](c3ccc(F)cc3)[C@H](O)C2)sc2c([N+](=O)[O-])cc(C(F)(F)F)cc12 — within 1.5-fold, 0.0132 µM (≈ 0.0062 µg/mL)
- N#Cc1cccc(N2CCN(c3nc(=O)c4cc(C(F)(F)F)cc([N+](=O)[O-])c4s3)CC2)c1 — 2.7-fold higher, 0.0347 µM (≈ 0.016 µg/mL)
- O=C(CN1CCN(c2nc(=O)c3cc(C(F)(F)F)cc([N+](=O)[O-])c3s2)CC1)Nc1ccccn1 — 4-fold higher, 0.0506 µM (≈ 0.025 µg/mL)
- O=c1nc(N2CCN(CCc3ccccc3)CC2)sc2c([N+](=O)[O-])cc(C(F)(F)F)cc12 — within 1.5-fold, 0.0172 µM (≈ 0.00799 µg/mL)
- O=c1nc(N2CC[C@@](O)(c3ccccc3)[C@H](O)C2)sc2c([N+](=O)[O-])cc(C(F)(F)F)cc12 — 4.2-fold higher, 0.0535 µM (≈ 0.025 µg/mL)
